Patent publication US20240016924A1, “NEW ADJUVANT TO IMPROVE THE INNATE IMMUNITY” (INSTITUT NATIONAL DE LA SANTÉ ET DE LA RECHERCHE MÉDICALE, priority 2020, published 2024)

Assays:
[1] = test system: primary human nasal epithelial cells (HNECs); assay: TSLP secretion in primary human nasal epithelial cells; format: cell-based; details: GalCer-dependent
Description: Primary human nasal epithelial cells (HNECs, purchased from PromoCell, Heidelberg, Germany) were isolated from nasal septum or adenoids of healthy donors. Cells from two independent donors were obtained. HNECs were cultured in airway epithelial cell basal medium (PromoCell) and supplemented with airway epithelial cell growth SupplementMix (PromoCell) and only cells from passage 2 to 6 were used.
TSLP, IL-25/IL-17E, IL-33, IFN-γ, IL-10, IL-12/23p40, IL-4, IL-5, IL-6, IL-13, TNF-α, MMP-9, IL-8/CXCL8, […], MDC/CCL22, TARC/CCL17, APRIL and BAFF were measured in culture supernatants from indicated experiments with custom multiplex Luminex assays (Bio-techne) according to the manufacturer's instructions. Additionally, when indicated TSLP was measured in culture supernatants by enzyme-linked immunosorbent assay (ELISA) with a limit of detection of 8 pg/ml (Thermo Fisher) according to the manufacturer's instructions.

[2] = test system: nasal RPMI cells; assay: Calcium measurement (Fura-2/AM), nasal RPMI cells; format: cell-based, human; details: P1 125 μM vs 2511M, controls at 125 μM, n=3
Description: (§1) 70-80% confluent RPMI 2650 or HNEC cells in 24-well plate were loaded with […] Fura-2/AM (Molecular Probes) in basal medium without serum/growth factors for 1 hour at 37° C. Cells were washed twice with mammalian saline (Conche, Boulla et al. 2009) and measurements were performed in complete medium supplied with HEPS (10 mM) and CaCl2 (2 mM) as described add (Conche, Boulla et al. 2009). Images were acquired with an inverted fluorescence microscope (Observer Z1, Zeiss, Germany) and analyzed with MetaMorph software (Guichard, Bonilla et al. 2017) Calcium was measured every 5 seconds by video fluorescence imaging. Results were expressed as 340 nm to 380 nm fluorescence ratio and normalized to the baseline, i.e. ratio at time zero was set as 1.

[3] = test system: primary HNEC cells; assay: Calcium measurement (Fura-2/AM), primary HNEC cells; format: cell-based, human; details: P1 125 μM vs 2511M, controls at 125 μM, n=3
Description: as §1

[4] = test system: autologous CD4+ T cells; assay: DC-T co-cultures, CD4+ T cell proliferation (CFSE); format: cell-based, human
Description: Autologous CD4+ T cells were purified from PMBCs by negative selection according to manufacturer instructions (StemCell Technologies, France) (purity>95%)
DCs and confluent ECs were co-cultured overnight as described above, and DC-EC or eduDC was further incubated with P1 (clade B, 125 μM) or medium for 24 h. Then, DCs were separated and incubated with autologous CD4+ T cells pre-labeled with CFSE (Thermo Fisher) according to the manufacturer's instructions, at a ratio of 1:5 (DC/T). After 5 days of culture, CD4+ T cell proliferation was analyzed by flow cytometry as described (Yeh, Yeh et al. 2013, Qin, Yin et al. 2015) using Phytohaemagglutinin (PHA) (5 μg/mL) as positive control.

“SQNQQEKNEQELLELDKWASLWNWFNITNWLWYIK [P1]” was tested, and the TSLP secretion [1] was “induces primary human nasal epithelial cells (HNECs) to secrete TSLP”, the “extracellular calcium influx (340/380 nm ratio)” value [2] was “induces an immediate extracellular calcium influx in a concentration-dependent manner” and the “extracellular calcium influx (340/380 nm ratio)” value [3] was “induces an immediate extracellular calcium influx in a concentration-dependent manner”. For the same sequence, the “proliferation of CD4+ T cells” value ([4]; P1 stimulation on CD4+ T cells alone) was “has no effect” and the “proliferation of autologous CD4+ T cells” value ([4]; peptide-primed eduDCs, 125 μM, 5 days, DC/T 1:5) was “induced the proliferation of autologous CD4+ T cells”.
